How the values were obtained:
NIH3T3 = assay: Cell viability under paraquat oxidative stress; type: cell-based, mouse
Description: Cells: NIH3T3 mouse fibroblasts and the N2a neuroblastoma cell line were obtained from the American Type Culture Collection and were validated by genomic PCR. Primary human fibroblasts (GM01651) were from Coriell Repository. All the cells lines were tested for mycoplasma contamination using DNA staining protocol with Hoechst 33258 dye. Knock-down of NCoR1 was done using lentiviral mediated shRNA (SHCLNG-NM_011308) from the Sigma Mission library following standard procedures. Efficiency of knock-down was tested by immunoblot. Cell viability was measured using the CellTiter-Blue kit (Promega) 24 h after the addition of the different stressors according to manufacturer's instructions.

[1] = molecular target: T1, human RARα LBD / NCoR1 peptide (Homo sapiens, UniProt P10276); assay: Fluorescence polarization binding assay, RARα LBD with FITC-NCoR1 peptide; conditions: 10 μM compound
T1 construct: human RARα (residues 176-421); His tag; made in house; host or cells: Escherichia coli BL21(DE3)
Description: The histidine-tagged ligand binding domain (LBD) of human RARα (residues 176-421) was expressed in Escherichia colic BL21(DE3). Cells were grown at 37° C. in LB medium supplemented with 50 μg/mL kanamycin until OD600 reached about 0.8. Expression of T7 polymerase was induced by addition of isopropyl-b-d-thiogalactoside (IPTG) to a final concentration of 0.8 mM and cells were incubated at 20° C. overnight. Cell cultures were harvested by centrifugation at 8,000×g for 15 mins. The cell pellet from 1 liter of RARα LBD was resuspended in 50 mL lysis buffer (20 mM Tris-HCl pH 8, 500 mM NaCl, 25 mM imidazole) supplemented with ONE COMPLETE, an EDTA-free protease inhibitor tablet (Roche Applied Science). The suspension was lysed using a high-pressure homogenizer and centrifuged at 35,000×g at 4° C. for 45 minutes. […]
The fluorescein-tagged peptide of NCoR1, FITC-Ahx-RLITLADHICQIITQDFAR (FITC-NCoR1) was provided by Genscript at purity>95%. Fluorescence polarization assays (FPA) were performed using established procedures. […] Fluorescence polarization was measured at 30 min on a F200 PRO microplate reader (TECAN) with the excitation wavelength set at 470 nm and emission measured at 530 nm. EC50 values were calculated by nonlinear regression analysis of competitive binding curves using Graphpad Prism software.

[2] = system: retinal explants of rd10 mice; assay: Ex vivo retinal explants of rd10 mice; parameters: species or system mouse; conditions: 10 μM, 24 h; vs contralateral untreated explant
Description: Ex-vivo retinal cultures: After removal of the eyes, all non-relevant tissue was removed from the neuroretina, which was then placed, photoreceptors upside down, in millicell support inserts (Millipore) and maintained in DMEM with 1 μM insulin (SIGMA, I2643-25 mg) for 24 h at 37° C. in a 5% CO2 atmosphere. Where indicated, retinas were incubated with 10 µM CA77 for the indicated times. The retinas were then washed twice with phosphate-buffered saline (PBS), fixed overnight in 4% paraformaldehyde (w/v) in 0.1 M phosphate buffer (pH 7.4) and processed.
Staining of whole-mount retinas: Immunostainings were performed overnight at 4° ° C. using antibodies against visual arrestin (Santacruz Biotechnologies) and Opsin R/G (Millipore) after initial permeabilization with 2% Triton X-100 for 1 h at RT and subsequent incubation with blocking solution (10% normal goat serum, 0.25% Triton X-100 in PBS). The retinas were then washed and incubated for 1 h with Alexa 568 or 647 (Invitrogen), counterstained with DAPI, mounted in Fluoromount, and visualized by confocal microscopy in a SP5 confocal microscope (TCS SP5; Leica Microsystems).

rd10 mice = assay: rd10 mouse retinal degeneration, single intravitreal injection; type: in vivo
Description: Cryosections and immunofluorescence: Cryosections and immunofluorescence in retinal sections were performed as previously described 10. Primary antibodies used in this study were Transducin (Santacruz Biotechnologies) and Opsin R/G (Millipore). Sections were visualized by confocal microscopy (TCS SP5; Leica Microsystems). ONL thickness and outer segment length quantification: For ONL thickness quantification, DAPI images were taken at 40× in a fluorescence microscope Multidimensional system Leica AF6000 LX coupled to DMI600B microscope and Hamamatsu CCD 9100-02 camera. At least two sections per animal were analyzed, preferably central sections. Eight images per retina equally distributed along the retina were acquired. Three measures were taken per image and ratio ONL/INL quantified with ImageJ tools. Leica LAS-X was used for image acquisition and ImageJ (v.2.1.0) was used for image processing. For OS length measures, fixed positions common to all pictures were considered and OS length was measured using ImageJ straight line tool.

[3] = Bidirectional permeability assay with CaCo-2 cells; type: in vitro ADME
Description: In vitro solubility in the following conditions A) HBSS/HEPES 10 mM/BSA 0.1% pH 6 B) HBSS/HEPES 10 mM/BSA 0.1% pH 7.4 C) TRIS/BSA 0.1% PBS (pH 7.4 and at indicated doses were measured by Nephelometry using the NEPHELOstar Galaxy apparatus (BMG Lab Technologies). In vitro stability in human, mouse and rat liver microsomes and permeability using a bidirectional permeability assay with CaCo-2 cells (pH 6.5/7.4) assays were performed with standard methodology and analyzed by LC-MS/MS. at SIMM-SERVIER joint Biopharmacy Laboratory. In silico ADME properties calculated by QikProp (Schrodinger, LLC) analysis and ADME predictions for CA39 (left) and CA77 (right).

T1 sequence (P10276 176-421, other chains not shown): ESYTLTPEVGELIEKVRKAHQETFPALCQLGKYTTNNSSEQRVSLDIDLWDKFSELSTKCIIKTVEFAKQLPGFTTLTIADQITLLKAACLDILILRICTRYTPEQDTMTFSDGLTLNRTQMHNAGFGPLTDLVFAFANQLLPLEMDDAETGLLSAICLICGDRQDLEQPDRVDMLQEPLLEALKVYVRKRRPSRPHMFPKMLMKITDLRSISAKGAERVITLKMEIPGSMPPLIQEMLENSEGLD

SMILES | protection against paraquat (NIH3T3; compound added after the insult, compared with AR7) | cell death under paraquat (NIH3T3; compound administered before the insult) | NCoR1 peptide binding to RARα [1] | cones (opsin-positive) [2] | number of rods (rod arrestin-positive) [2] | vision (rd10 mice; 7 days after single intravitreal injection) | retinal ONL/INL ratio, OS and ONL preservation (rd10 mice; 7 days after single intravitreal injection (40 μM) at P18) | gliosis (rd10 mice; single intravitreal injection (40 μM) at P18) | membrane permeability [3]
Clc1ccc2c(c1)OCC(c1ccc(-c3ccccc3)cc1)=N2 [CA39] | significantly higher protection than AR7 | reduced cell death | enhanced NCoR1 peptide binding to RARα |  |  |  |  |  | 
CC(=O)Nc1ccc(C2=Nc3ccc(Cl)cc3OC2)cc1 [CA77] |  |  | enhanced NCoR1 peptide binding to RARα | higher preservation also for cones | significant preservation of the number of rods | preserved vision | thicker retinal ONL/INL ratio and better OS and ONL preservation | significantly improved | highly membrane permeable
